In patent US20220380378A1 (ESSA Pharma, Inc., priority 2021, published 2022):

Assays:
[1] = molecular target: T1, androgen receptor (AR) (Homo sapiens, UniProt P10275, T878A); assay: Androgen-induced PSA (6.1 kb)-luciferase reporter assay in LNCaP cells (R1881 1 nM); format: cell-based; parameters: endogenous in cells; host or cells: LNCaP; settings: 24 h, read-out: PSA-Luc IC50 Range
T1 sequence (P10275 1-920 T878A): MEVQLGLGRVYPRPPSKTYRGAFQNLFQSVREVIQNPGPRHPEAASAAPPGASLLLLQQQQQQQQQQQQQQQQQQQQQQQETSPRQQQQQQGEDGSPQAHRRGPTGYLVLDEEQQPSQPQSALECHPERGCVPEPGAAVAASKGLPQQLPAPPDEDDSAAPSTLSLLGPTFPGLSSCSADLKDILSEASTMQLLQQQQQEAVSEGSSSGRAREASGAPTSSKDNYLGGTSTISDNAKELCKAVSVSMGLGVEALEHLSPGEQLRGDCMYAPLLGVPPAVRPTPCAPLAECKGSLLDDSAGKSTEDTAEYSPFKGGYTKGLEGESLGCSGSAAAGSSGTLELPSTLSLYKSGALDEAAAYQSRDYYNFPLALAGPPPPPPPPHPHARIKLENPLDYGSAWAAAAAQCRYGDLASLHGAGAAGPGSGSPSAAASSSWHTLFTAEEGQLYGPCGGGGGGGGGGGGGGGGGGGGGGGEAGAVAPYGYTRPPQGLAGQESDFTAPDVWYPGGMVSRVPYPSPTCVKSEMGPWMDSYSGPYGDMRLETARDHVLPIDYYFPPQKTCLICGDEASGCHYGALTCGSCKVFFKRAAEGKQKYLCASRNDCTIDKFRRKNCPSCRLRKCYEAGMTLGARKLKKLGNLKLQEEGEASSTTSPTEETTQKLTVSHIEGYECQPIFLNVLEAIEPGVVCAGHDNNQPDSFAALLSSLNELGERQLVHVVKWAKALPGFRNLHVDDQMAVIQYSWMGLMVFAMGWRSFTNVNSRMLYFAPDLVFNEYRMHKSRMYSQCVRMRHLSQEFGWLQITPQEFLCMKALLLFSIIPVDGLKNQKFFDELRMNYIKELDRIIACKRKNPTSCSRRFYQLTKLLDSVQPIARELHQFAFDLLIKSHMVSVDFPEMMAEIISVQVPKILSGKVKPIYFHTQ
Outline: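 Compound or vehicle was added 1 h before 1 nM R1881 to LNCaP cells carrying a transiently transfected (24 h) PSA (6.1 kb)-luciferase reporter. After 24 h androgen exposure, lysate luminescence was normalized to protein and expressed versus vehicle plus R1881 for IC50.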

[2] = Microsomal stability assay, liver microsome half-life (human); format: in vitro ADME; settings: pH 7.4; human liver microsomes 0.5 mg/mL, 1 μM compound, 37° C.; read-out: Liver microsome T1/2 Human
Description: (§1) Microsomal Stability Assay: Microsomal stability assay is a widely used in vitro model to characterize the metabolic conversion by phase I enzymes, such as cytochrome P450 (CYP) enzymes. Since metabolism is known to be highly variable in different species, microsomal stability assay is commonly run in multiple species. Metabolic stability of testing compound can be evaluated using human, rat, mouse, or other animal liver or intestine microsomes to predict intrinsic clearance.
(§2) The assay was carried out in 96-well microtiter plates at 37° C. Reaction mixtures (25 μL) contained a final concentration of 1 μM test compound, 0.5 mg/mL liver microsomes protein, and 1 mM NADPH and/or 1 mM UDPGA (with alamethicin) in 100 mM potassium phosphate, pH 7.4 buffer with 3 mM MgCl2. The incubation was done with N=1, but duplicate incubation at each time point can be prepared if necessary. At each of the time points (for example, 0, 15, 30, and 60 minutes), 150 μL of quench solution (100% acetonitrile with 0.1% formic acid) with internal standard was transferred to each well. Besides the zero minute controls, mixtures containing the same components except the NADPH can also be prepared as the negative control. Verapamil was included as a positive control to verify assay performance. Plates were sealed, vortexed, and centrifuged at 4° C. for 15 minutes at 4000 rpm. The supernatant is transferred to fresh plates for LC/MS/MS analysis.
(§3) Summarized conditions: [Compound]=1 μM, [LM]=0.5 mg/mL, [NADPH]=1 mM and/or [UDPGA]=1 mM, Buffer=100 mM Potassium Phosphate, pH 7.4 with 3 mM MgCl2, Time=0, 15, 30, and 60 min, and Temperature=37° C.
(§4) All samples were analyzed on LC/MS/MS using an AB Sciex API 4000 instrument, coupled to a Shimadzu LC-20AD LC Pump system. Analytical samples were separated using a Waters Atlantis T3 dC18 reverse phase HPLC column (20 mm×2.1 mm) at a flow rate of 0.5 mL/min. The mobile phase consisted of 0.1% formic acid in water (solvent A) and 0.1% formic acid in 100% acetonitrile (solvent B).
(§5) The extent of metabolism is calculated as the disappearance of the test compound, compared to the 0-min time incubation. Initial rates are calculated for the compound concentration and used to determine half-life (t½). […]

[3] = Microsomal stability assay, liver microsome half-life (mouse); format: in vitro ADME; settings: pH 7.4; mouse liver microsomes 0.5 mg/mL, 1 μM compound, 37° C.; read-out: Liver microsome T1/2 Mouse
Description: as §1, §2, §3, §4, §5

[4] = Microsomal stability assay, liver microsome half-life (dog); format: in vitro ADME; settings: pH 7.4; dog liver microsomes 0.5 mg/mL, 1 μM compound, 37° C.; read-out: Liver microsome T1/2 Dog
Description: as §1, §2, §3, §4
(§6) The extent of metabolism is calculated as the disappearance of the test compound, compared to the 0-min time incubation. Initial rates are calculated for the compound concentration and used to determine half-life (t½).

[5] = Microsomal stability assay, liver microsome half-life (monkey); format: in vitro ADME; settings: pH 7.4; monkey liver microsomes 0.5 mg/mL, 1 μM compound, 37° C.; read-out: Liver microsome T1/2 Monkey
Description: as §1, §2, §3, §4, §6

[6] = Microsomal stability assay, liver microsome half-life (rat); format: in vitro ADME; settings: pH 7.4; rat liver microsomes 0.5 mg/mL, 1 μM compound, 37° C.; read-out: Liver microsome T1/2 Rat
Description: as §1, §2, §3, §4, §5

| IC50 [1] [nM] | half-life at 1 μM [2] [h] | half-life at 1 μM [3] [h] | half-life at 1 μM [4] [h] | half-life at 1 μM [5] [h] | half-life at 1 μM [6] [h] | SMILES |
| --- | --- | --- | --- | --- | --- | --- |
| 500 to 2000 | 1.14 | > 2 |  |  |  | CS(=O)(=O)Nc1nccc(COc2ccc3c(c2)CCC=C3c2cc(Cl)c(OCCCl)c(C#N)c2)n1 [Compound A32, N-(4-(((5-(3-chloro-4-(2-chloroethoxy)-5-cyanophenyl)-7,8-dihydronaphthalen-2-yl)oxy)methyl)pyrimidin-2-yl)methanesulfonamide] |
| 500 to 2000 | > 2 | > 2 |  |  |  | CS(=O)(=O)Nc1nccc(COc2ccc3c(c2)CCCC3c2cc(Cl)c(OCCCl)c(C#N)c2)n1 (centres unmarked) [Compound A33, N-(4-(((5-(3-chloro-4-(2-chloroethoxy)-5-cyanophenyl)-5,6,7,8-tetrahydronaphthalen-2-yl)oxy)methyl)pyrimidin-2-yl)methanesulfonamide] |
| 500 to 2000 | > 2 | > 2 |  |  |  | CS(=O)(=O)Nc1nccc(COc2ccc3c(-c4cc(Cl)c(OCCCl)c(C#N)c4)cccc3c2)n1 [Compound A34, N-(4-(((5-(3-chloro-4-(2-chloroethoxy)-5-cyanophenyl)naphthalen-2-yl)oxy)methyl)pyrimidin-2-yl)methanesulfonamide] |
| 500 to 2000 | > 2 | > 2 | > 2 | > 2 | > 2 | CS(=O)(=O)Nc1nccc(COc2ccc3c(c2)CCC3c2cc(Cl)c(OCCCl)c(C#N)c2)n1 (centres unmarked) [Compound A35, N-(4-(((1-(3-chloro-4-(2-chloroethoxy)-5-cyanophenyl)-2,3-dihydro-1H-inden-5-yl)oxy)methyl)pyrimidin-2-yl)methanesulfonamide] |
| < 500 | > 2 | > 2 | > 2 | > 2 | > 2 | CS(=O)(=O)Nc1nccc(COc2ccc3c(ccn3-c3cc(Cl)c(OCCCl)c(C#N)c3)c2)n1 [Compound A36, N-(4-(((1-(3-chloro-4-(2-chloroethoxy)-5-cyanophenyl)-1H-indol-5-yl)oxy)methyl)pyrimidin-2-yl)methanesulfonamide] |
| > 2000 | > 2 | > 2 |  |  |  | CS(=O)(=O)Nc1nccc(COc2nnc(-c3cc(Cl)c(OCCCl)c(C#N)c3)s2)n1 [Compound A41] |
| 500 to 2000 | > 2 | > 2 | > 2 | > 2 | > 2 | CC(C)(c1ccc(OCc2ccnc(NS(C)(=O)=O)c2F)cc1)c1cc(Cl)c(OCCCl)c(C#N)c1 [Compound A48] |
| < 500 | > 2 | > 2 | 1.78 | > 2 | > 2 | CC(C)(c1ccc(-c2ccc3nc(NS(C)(=O)=O)ncc3c2)cc1)c1cc(Cl)c(OCCCl)c(C#N)c1 [Compound A51, N-[6-(4-{2-[3-chloro-4-(2-chloroethoxy)-5-cyanophenyl]propan-2-yl}phenyl)quinazolin-2-yl]methanesulfonamide] |
| < 500 | 1.15 | > 2 | > 2 | 1.13 | > 2 | CS(=O)(=O)NC12CC(COc3ccc4c(ccn4-c4cc(Cl)c(OCCCl)c(C#N)c4)c3)(C1)C2 [Compound A57, N-(3-(((1-(3-chloro-4-(2-chloroethoxy)-5-cyanophenyl)-1H-indol-5-yl)oxy)methyl)bicyclo[1.1.1]pentan-1-yl)methanesulfonamide] |
| < 500 | 0.183 | > 2 | 0.967 | 0.117 | > 2 | CS(=O)(=O)N1CC(COc2ccc3c(ccn3-c3cc(Cl)c(OCCCl)c(C#N)c3)c2)C1 [Compound A59] |
| < 500 | > 2 | 1.6 | > 2 | 0.633 | 0.85 | CC(C)(c1ccc(OCc2cnc(NS(C)(=O)=O)nc2N2CCOCC2)cc1)c1cc(Cl)c(OCCCl)c(C#N)c1 [Compound A100] |
| < 500 | > 2 | > 2 | > 2 | > 2 | > 2 | CC(C)(c1ccc(-c2ccc3nc(NS(C)(=O)=O)cnc3c2)cc1)c1cc(Cl)c(OCCCl)c(C#N)c1 [Compound A107, N-(6-(4-(2-(3-chloro-4-(2-chloroethoxy)-5-cyanophenyl)propan-2-yl)phenyl)quinoxalin-2-yl)methanesulfonamide] |
| 500 to 2000 | 1.93 | > 2 | > 2 | > 2 | > 2 | CC(C)(c1ccc(-c2ccn3nc(NS(C)(=O)=O)nc3c2)cc1)c1cc(Cl)c(OCCCl)c(C#N)c1 [Compound A113] |
| 500 to 2000 | > 2 | > 2 | 1.05 | > 2 | > 2 | CC(C)(c1ccc(-c2ccc3c(c2)CCN(S(C)(=O)=O)C3)cc1)c1cc(Cl)c(OCCCl)c(C#N)c1 [Compound A114] |
| 500 to 2000 | > 2 | > 2 | > 2 | > 2 | > 2 | CS(=O)(=O)Nc1ncc2cc(-c3ccc(Oc4cc(Cl)c(OCCCl)c(C#N)c4)cc3)ccc2n1 [Compound A116, N-(6-(4-(3-chloro-4-(2-chloroethoxy)-5-cyanophenoxy)phenyl)quinazolin-2-yl)methanesulfonamide] |
|  | > 2 | > 2 | > 2 | > 2 | > 2 | CNC(=O)c1ccc(N2C(=S)N(c3ccc(C#N)c(C(F)(F)F)c3)C(=O)C2(C)C)cc1F [Enzalutamide, enzalutamide, reference compound] |
